Results as given in patent US8889704B2 (Array BioPharma Inc., priority 2011, dated 2014).
Structures can show the parent of a compound that is named as a salt.

Key:
Format in all cases: biochemical
recombinant rat PIM-3 = recombinant rat PIM-3 (Rattus norvegicus, UniProt O70444); experiment: PIM-3 Assay (as Example A); conditions: averaged IC50; 30 μM ATP, 3.75 μM PIM2tide, 0.5 nM PIM-3
In short: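 Recombinant rat PIM-3 (0.5 nM) with 3.75 μM PIM2tide and 30 μM [γ-33P]ATP in MOPS pH 7.4 buffer, 60 min at 22 °C; labelled peptide captured on phosphocellulose filters and counted by scintillation. 10-point curve (top dose 10 μM, 2% DMSO); IC50 from 4-parameter fit of percent of control.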

[1] = target: T1, GST-tagged recombinant full-length human Pim-2 (Homo sapiens, UniProt Q9P1W9); experiment: PIM-2 Assay (as Example A); conditions: averaged IC50; 4 μM ATP, 1.0 μM PIM2tide, 1.5 nM Pim-2
T1 construct: GST-tagged recombinant full-length human Pim-2; GST
T1 sequence (Q9P1W9 whole entry): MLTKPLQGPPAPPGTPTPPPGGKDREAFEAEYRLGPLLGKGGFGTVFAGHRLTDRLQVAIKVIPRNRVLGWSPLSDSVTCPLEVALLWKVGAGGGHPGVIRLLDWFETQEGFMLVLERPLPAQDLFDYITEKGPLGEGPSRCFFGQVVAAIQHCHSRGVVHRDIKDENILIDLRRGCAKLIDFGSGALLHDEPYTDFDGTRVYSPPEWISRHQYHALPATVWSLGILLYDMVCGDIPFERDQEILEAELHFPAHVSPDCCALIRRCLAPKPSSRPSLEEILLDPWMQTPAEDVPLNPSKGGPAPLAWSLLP
In short: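 Radiometric filter-binding assay: GST-tagged full-length human Pim-2 (1.5 nM) phosphorylates 1.0 μM PIM2tide with 4 μM [γ-33P]ATP for 60 min at 22 °C in pH 7.4 MOPS buffer, 2% DMSO. 10-point 3-fold dilutions from 10 μM top dose; IC50 from 4-parameter fit of percent of control.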

PIM-1 = PIM-1 (Homo sapiens, UniProt P11309); experiment: Enzyme PIM-1 Assay ([33P]ATP incorporation into PIM2tide, filter plate); conditions: averaged IC50; 35 μM ATP, 7.5 μM PIM2tide, 0.25 nM PIM-1, 60 min at 22° C.
PIM-1, sequence (P11309 whole entry, species assumed): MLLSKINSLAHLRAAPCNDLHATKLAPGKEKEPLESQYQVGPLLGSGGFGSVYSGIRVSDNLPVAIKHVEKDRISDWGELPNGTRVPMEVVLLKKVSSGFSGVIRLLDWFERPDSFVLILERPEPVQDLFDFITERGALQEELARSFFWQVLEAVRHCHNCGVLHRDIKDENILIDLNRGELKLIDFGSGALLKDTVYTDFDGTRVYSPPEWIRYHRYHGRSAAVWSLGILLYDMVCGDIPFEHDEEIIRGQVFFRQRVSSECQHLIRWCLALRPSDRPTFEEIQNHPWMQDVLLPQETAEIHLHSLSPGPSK
In short: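 Radiometric assay: 0.25 nM PIM-1 phosphorylates 7.5 μM PIM2tide with 35 μM [γ-33P]ATP in 20 mM MOPS pH 7.4, 10 mM MgCl2, 1 mM DTT, 0.005% Tween-20, 60 min at 22 °C. Product captured on P81 filters, scintillation counted; 10-point 3-fold curve from 10 μM top, 2% DMSO, IC50 by 4-parameter logistic fit of POC.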

Row | Compound | IC50 (recombinant rat PIM-3) | IC50 [1] | IC50 (PIM-1)
1 | N#Cc1cccc2ccc(-c3nnc4ccc([C@@H](N5C[C@@H]6C[C@H]5CN6)C(F)(F)F)cn34)nc12 [Example 89, 2-(6-((R)-1-((1S,4S)-2,5-diazabicyclo[2.2.1]heptan-2-yl)-2,2,2-trifluoroethyl)-[1,2,4]triazolo[4,3-a]pyridin-3-yl)quinoline-8-carbonitrile dihydrochloride] | 14 nM | > 100 nM | 5.38 nM
2 | N[C@H]1CCN(C(c2ccc3nnc(-c4ccc5ccc(-c6cccnc6)cc5n4)n3c2)C(F)(F)F)C1 (stereo partly drawn) [Example 18, (3S)-1-(2,2,2-trifluoro-1-(3-(7-(pyridin-3-yl)quinolin-2-yl)-[1,2,4]triazolo[4,3-a]pyridin-6-yl)ethyl)pyrrolidin-3-amine tri-hydrochloride] | 0.5 nM | 172 nM | 0.25 nM
3 | COC[C@@H](C)Oc1ccc2ccc(-c3nnc4ccc([C@@H](N5CC[C@H](N)C5)C(F)(F)F)cn34)nc2c1 [Example 149, (S)-1-((R)-2,2,2-trifluoro-1-(3-(7-((R)-1-methoxypropan-2-yloxy)quinolin-2-yl)-[1,2,4]triazolo[4,3-a]pyridin-6-yl)ethyl)pyrrolidin-3-amine dihydrochloride] | 0.7 nM | > 100 nM | 0.17 nM
4 | CC(C)Oc1c(C#N)ccc2ccc(-c3nnc4ccc([C@@H](N5CC[C@H](N)C5)C(F)(F)F)cn34)nc12 [Example 75, 2-(6-((R)-1-((S)-3-aminopyrrolidin-1-yl)-2,2,2-trifluoroethyl)-[1,2,4]triazolo[4,3-a]pyridin-3-yl)-8-isopropoxyquinoline-7-carbonitrile dihydrochloride] | 18 nM | > 100 nM | 1.84 nM
5 | CO[C@H](C)COc1ccc2cc(F)c(-c3nnc4ccc([C@@H](N5CC[C@H](N)C5)C(F)(F)F)cn34)nc2c1 [Example 328, (S)-1-((R)-2,2,2-trifluoro-1-(3-(3-fluoro-7-((R)-2-methoxypropoxy)quinolin-2-yl)-[1,2,4]triazolo[4,3-a]pyridin-6-yl)ethyl)pyrrolidin-3-amine] | 1.39 nM | 748 nM | 0.33 nM
6 | CC(C)(O)Cc1cc2nc(-c3nnc4ccc([C@@H](N5CC[C@H](N)C5)C(F)(F)F)cn34)ccc2cc1F [Example 236, dihydrochloride] | 2.4 nM | 675 nM | 1.08 nM
7 | COCCOc1ccc2ccc(-c3nnc4ccc([C@@H](N5CC[C@H](N)C5)C(F)(F)F)cn34)nc2c1Cl [Example 174, (S)-1-((R)-1-(3-(8-chloro-7-(2-methoxyethoxy)quinolin-2-yl)-[1,2,4]triazolo[4,3-a]pyridin-6-yl)-2,2,2-trifluoroethyl)pyrrolidin-3-amine hydrochloride] | 0.8 nM | > 100 nM | 1.1 nM
8 | COC[C@@H](C)Oc1ccc2ccc(-c3nnc4ccc([C@H](N5CC[C@](C)(N)C5)C(F)(F)F)cn34)nc2c1 [Example 315, (S)-3-methyl-1-((S)-2,2,2-trifluoro-1-(3-(7-(((R)-1-methoxypropan-2-yl)oxy)quinolin-2-yl)-[1,2,4]triazolo[4,3-a]pyridin-6-yl)ethyl)pyrrolidin-3-amine] | 0.4 nM | 25.7 nM | 0.19 nM
9 | CC(C)Oc1c(F)ccc2ccc(-c3nnc4ccc([C@@H](N5CC[C@H](N)C5)C(F)(F)F)cn34)nc12 [Example 109, (S)-1-((R)-2,2,2-trifluoro-1-(3-(7-fluoro-8-isopropoxyquinolin-2-yl)-[1,2,4]triazolo[4,3-a]pyridin-6-yl)ethyl)pyrrolidin-3-amine hydrochloride] | 5.5 nM | > 100 nM | 0.28 nM
10 | N[C@H]1CCN(C(c2ccc3nnc(-c4ccc5ccc(C6CC6)cc5n4)n3c2)C(F)(F)F)C1 (stereo partly drawn) [Example 3, (3S)-1-(1-(3-(7-cyclopropylquinolin-2-yl)-[1,2,4]triazolo[4,3-a]pyridin-6-yl)-2,2,2-trifluoroethyl)pyrrolidin-3-amine dihydrochloride] | 0.3 nM | 53 nM | 0.13 nM
11 | N[C@H]1CCN([C@H](c2ccc3nnc(-c4ccc5cc(F)cc(C6(CO)CC6)c5n4)n3c2)C(F)(F)F)C1 [Example 125, (1-(2-(6-((R)-1-((S)-3-aminopyrrolidin-1-yl)-2,2,2-trifluoroethyl)-[1,2,4]triazolo[4,3-a]pyridin-3-yl)-6-fluoroquinolin-8-yl)cyclopropyl)methanol dihydrochloride] | 0.4 nM | 6.2 nM | 0.11 nM
12 | CCOc1cc2nc(-c3nnc4ccc([C@H](N5CCC(N)(CC)C5)C(F)(F)F)cn34)ccc2cc1F (single isomer, unassigned; diastereomer 2) [Example 245, dihydrochloride] | 0.5 nM | 125 nM | 1.04 nM
13 | COCCOc1ccc2ccc(-c3nnc4ccc([C@@H](N5C[C@@H](N)[C@H](OC)C5)C(F)(F)F)cn34)nc2c1 [Example 318, (3R,4R)-4-methoxy-1-((R)-2,2,2-trifluoro-1-(3-(7-(2-methoxyethoxy)quinolin-2-yl)-[1,2,4]triazolo[4,3-a]pyridin-6-yl)ethyl)pyrrolidin-3-amine] | 0.8 nM | 218 nM | 0.94 nM
14 | CO[C@@H](C)COc1ccc2ccc(-c3nnc4ccc([C@@H](N5CC[C@H](N)C5)C(F)(F)F)cn34)nc2c1 [Example 287, (S)-1-((R)-2,2,2-trifluoro-1-(3-(7-((S)-2-methoxypropoxy)quinolin-2-yl)-[1,2,4]triazolo[4,3-a]pyridin-6-yl)ethyl)pyrrolidin-3-amine dihydrochloride] | 0.7 nM | 178 nM | 0.32 nM
15 | COC[C@H](C)Oc1ccc2ccc(-c3nnc4ccc([C@@H](N5CC[C@H](N)C5)C(F)(F)F)cn34)nc2c1 [Example 150, (S)-1-((R)-2,2,2-trifluoro-1-(3-(7-((S)-1-methoxypropan-2-yloxy)quinolin-2-yl)-[1,2,4]triazolo[4,3-a]pyridin-6-yl)ethyl)pyrrolidin-3-amine dihydrochloride] | 3.5 nM | > 100 nM | 0.41 nM
16 | CCNC(=O)c1ccc2ccc(-c3nnc4ccc([C@@H](N5CC[C@H](N)C5)C(F)(F)F)cn34)nc2c1 [Example 38, 2-(6-((R)-1-((S)-3-aminopyrrolidin-1-yl)-2,2,2-trifluoroethyl)-[1,2,4]triazolo[4,3-a]pyridin-3-yl)-N-ethylquinoline-7-carboxamide dihydrochloride] | 0.5 nM | 56 nM | 0.23 nM
17 | CC(C)Oc1cccc2ccc(-c3nnc4ccc([C@@H](N5CC[C@@](N)(CF)C5)C(F)(F)F)cn34)nc12 (single isomer, unassigned) [Example 154, dihydrochloride] | 4.2 nM | > 100 nM | 0.58 nM
18 | COCCOc1ccc2ccc(-c3nnc4ccc([C@H](N5CC[C@](C)(N)C5)C(F)(F)F)cn34)nc2c1 [Example 260, (S)-3-methyl-1-((S)-2,2,2-trifluoro-1-(3-(7-(2-methoxyethoxy)quinolin-2-yl)-[1,2,4]triazolo[4,3-a]pyridin-6-yl)ethyl)pyrrolidin-3-amine dihydrochloride] | 0.5 nM | 95 nM | 0.39 nM
19 | CCc1cccc2ccc(-c3nnc4ccc([C@@H](N5C[C@@H]6C[C@H]5CN6)C(F)(F)F)cn34)nc12 [Example 66, 2-(6-((R)-1-((1S,4S)-2,5-diazabicyclo[2.2.1]heptan-2-yl)-2,2,2-trifluoroethyl)-[1,2,4]triazolo[4,3-a]pyridin-3-yl)-8-ethylquinoline dihydrochloride] | 1.7 nM | 14 nM | 0.92 nM
20 | N[C@H]1CCN([C@H](c2ccc3nnc(-c4ccc5ccc(C6CC6)c(F)c5n4)n3c2)C(F)(F)F)C1 [Example 172, (S)-1-((R)-1-(3-(7-cyclopropyl-8-fluoroquinolin-2-yl)-[1,2,4]triazolo[4,3-a]pyridin-6-yl)-2,2,2-trifluoroethyl)pyrrolidin-3-amine dihydrochloride] | 10 nM | > 100 nM | 2.22 nM
21 | Cn1cc(-c2ccc3ccc(-c4nnc5ccc([C@@H](N6CC[C@H](N)C6)C(F)(F)F)cn45)nc3c2F)cn1 [Example 171, (S)-1-((R)-2,2,2-trifluoro-1-(3-(8-fluoro-7-(1-methyl-1H-pyrazol-4-yl)quinolin-2-yl)-[1,2,4]triazolo[4,3-a]pyridin-6-yl)ethyl)pyrrolidin-3-amine tri-hydrochloride] | 0.5 nM | > 100 nM | 0.29 nM
22 | CC(C)Oc1ccc2ccc(-c3nnc4ccc([C@@H](N5CC[C@H](N)C5)C(F)(F)F)cn34)nc2c1C1CC1 [Example 151, (S)-1-((R)-1-(3-(8-cyclopropyl-7-isopropoxyquinolin-2-yl)-[1,2,4]triazolo[4,3-a]pyridin-6-yl)-2,2,2-trifluoroethyl)pyrrolidin-3-amine dihydrochloride] | 1 nM | 85 nM | 0.49 nM
